Measured values reported in ChEMBL document CHEMBL1201862, “PubChem BioAssay data set” (2004).
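Five compound concentrations were applied to cells in 96-well plates for 48 hours; endpoints were derived by simple linear interpolation of the resulting dose-response curve. The concentration for 50% growth inhibition is given as GI50.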 Calls of active or inactive are those of the source. No stated cut-off is given here; in the data, active = GI50 up to about 1.1 µM and inactive = higher.

Legend:
Assay in all cases: DTP human tumour cell line panel, 48 h
BT-549 = system: BT-549
CAKI-1 = system: CAKI-1
CCRF-CEM = system: CCRF-CEM
HCT-15 = system: HCT-15
HOP-92 = system: HOP-92
K562 = system: K562
KM12 = system: KM12
M14 = system: M14
Malme-3M = system: Malme-3M
NCI-H23 = system: NCI-H23
NCI-H460 = system: NCI-H460
NCI/ADR-RES = system: NCI/ADR-RES
RPMI-8226 = system: RPMI-8226
SF-268 = system: SF-268
SK-MEL-28 = system: SK-MEL-28
SNB-19 = system: SNB-19
SNB-75 = system: SNB-75
SW-620 = system: SW-620
UACC-257 = system: UACC-257
UACC-62 = system: UACC-62

SMILES	GI50 (BT-549)	GI50 (CAKI-1)	GI50 (CCRF-CEM)	GI50 (HCT-15) [µM]	GI50 (HOP-92)	GI50 (K562)	GI50 (KM12)	GI50 (M14)	GI50 (Malme-3M)	GI50 (NCI-H23)	GI50 (NCI-H460)	GI50 (NCI/ADR-RES)	GI50 (RPMI-8226)	GI50 (SF-268)	GI50 (SK-MEL-28)	GI50 (SNB-19)	GI50 (SNB-75)	GI50 (SW-620)	GI50 (UACC-257)	GI50 (UACC-62)
COc1ccc2nc3cc(Cl)ccc3c(NCCNC(=O)Cn3c(=O)n(C)c(=O)c4c3nc3c(c(=O)n(C)c(=O)n3C)[n+]4[O-])c2c1	23 µM (inactive)	> 80 µM (inactive)	50 µM (inactive)	> 100	28.1 µM (inactive)	46.8 µM (inactive)	61.8 µM (inactive)	> 81.8 µM (inactive)	37.2 µM (inactive)	21.2 µM (inactive)	44.7 µM (inactive)	38.8 µM (inactive)	> 80.9 µM (inactive)	17.2 µM (inactive)	> 31.6 µM (inactive)	23.9 µM (inactive)	33.9 µM (inactive)	34.2 µM (inactive)	32.7 µM (inactive)	> 38.3 µM (inactive)
Oc1c(CN2CCCC2)ccc2cccnc12	46.1 µM (inactive)	6.04 µM (inactive)	8.77 µM (inactive)	2.84	26.4 µM (inactive)	> 33.5 µM (inactive)	24.8 µM (inactive)	15.7 µM (inactive)	25.1 µM (inactive)	27 µM (inactive)	20.3 µM (inactive)	2.38 µM (inactive)	16.7 µM (inactive)	24 µM (inactive)	22.5 µM (inactive)	18.3 µM (inactive)	37.5 µM (inactive)	24.2 µM (inactive)	29.3 µM (inactive)	26.2 µM (inactive)
Cc1cc2c(cc1C)C(=O)/C(=C/c1ccccc1C(=O)O)C2	25.6 µM (inactive)	72.4 µM (inactive)	30.9 µM (inactive)	36.6	33.3 µM (inactive)	37.2 µM (inactive)	55.5 µM (inactive)	> 100 µM (inactive)	47.8 µM (inactive)	19.6 µM (inactive)	40.5 µM (inactive)	54.8 µM (inactive)	24.3 µM (inactive)	31.8 µM (inactive)	64.4 µM (inactive)	34.7 µM (inactive)	30 µM (inactive)	46.8 µM (inactive)	> 100 µM (inactive)	54.7 µM (inactive)
Cc1c(C)c(C)c(CSC(=N)N)c(C)c1C	16.4 µM (inactive)	11.5 µM (inactive)	15.5 µM (inactive)	16.2	14 µM (inactive)	12.2 µM (inactive)	18.4 µM (inactive)	10.8 µM (inactive)	15.9 µM (inactive)	16.5 µM (inactive)	13.2 µM (inactive)	15.2 µM (inactive)	12.6 µM (inactive)	18.3 µM (inactive)	15.4 µM (inactive)	14.6 µM (inactive)	15.6 µM (inactive)	15.6 µM (inactive)	14.2 µM (inactive)	11.9 µM (inactive)
CC(=O)Nc1sc(Br)cc1S(=O)(=O)c1ccc(Cl)cc1	35.6 µM (inactive)	> 100 µM (inactive)	35.1 µM (inactive)	> 10	20.1 µM (inactive)	21.1 µM (inactive)	20.3 µM (inactive)	15.2 µM (inactive)	32.1 µM (inactive)	29.4 µM (inactive)	33.7 µM (inactive)	21.9 µM (inactive)	23.2 µM (inactive)	30.1 µM (inactive)	57.3 µM (inactive)	46.6 µM (inactive)	28.2 µM (inactive)	71.1 µM (inactive)	29.9 µM (inactive)	38.1 µM (inactive)
CN(C)CCNC(=O)c1cccc2nc3cccc(F)c3nc12	2.23 µM (inactive)	0.973 µM (active)	1.11 µM (active)	1.16	1.22 µM (inactive)	1.29 µM (inactive)	1.42 µM (inactive)	2.01 µM (inactive)	2.04 µM (inactive)	1.5 µM (inactive)	0.579 µM (active)	1.39 µM (inactive)	0.8 µM (active)	2.31 µM (inactive)	3.01 µM (inactive)	2.21 µM (inactive)	2.62 µM (inactive)	0.65 µM (active)	1.39 µM (inactive)	2.88 µM (inactive)
O=C(c1ccccc1)c1c(C(F)(F)F)[n+]([O-])c2ccccc2[n+]1[O-]	0.476 µM (active)	0.446 µM (active)	0.495 µM (active)	0.785	0.207 µM (active)	0.209 µM (active)	0.451 µM (active)	2.58 µM (inactive)	2 µM (inactive)	1.43 µM (inactive)	0.855 µM (active)	0.469 µM (active)	0.237 µM (active)	0.995 µM (active)	1.91 µM (inactive)	1.44 µM (inactive)	1.26 µM (inactive)	1.48 µM (inactive)	1.84 µM (inactive)	1.68 µM (inactive)
